Converted amounts (≈) assume the structure as drawn. Where two headings read alike, the source gives them in different places.
Columns and labels:
[1] = parameters: method as in PMID 20190449; conditions: at 25 °C; cited from earlier work
[2] = Solubility of genistein in different vehicles (shake flask, HPLC); assay type: physicochemical
Procedure: An excess amount of genistein was added to 1 mL each of the vehicles, including receptor buffer and oils, into a 1.5-mL Eppendorf, which was placed on a reciproacting shaker (Shaking Bath, Model B601D, Firstek Co., Ltd., Taipei, Taiwan) and shaken for more than 24 h at room temperature. Then each smaple was centrifuged at 12,000 rpm for 10 min. The drug concentration in supernatant was analyzed by HPLC.
Hitachi HPLC system (Hitachi, Tokyo, Japan), including model L-7100 pump, L-5210 autosampler, model L-4000H detector, and Merck Lichrocart® 100 RP 18 column (250 mm × 4 mm, 5 μm), was used. The mobile phase was composed of methanol and 0.05% phosphoric acid aqueous solution at ratios of 80/20 v/v. The flow rate and detection wavelength were at 1.0 mL/min and 230 nm, respectively. Diazepam solution was used as internal standard. The analytical method was successfully validated for linearity (1.0~100.0 μg/mL), with a determination coefficient (R^2) of 0.9997, precision of coefficient of variation (CV, %) of 4.16%, and accuracy of relative error (RE, %) of 5.71%. The limit of quantitation was 0.5 µg/mL.

Salmonella typhimurium = test system: Salmonella typhimurium; parameters: method as in PMID 16198038, PMID 9748575, PMID 2548712; conditions: cited from earlier work
[3] = In vivo pharmacokinetic determination; conditions: 20 mg/kg; for Cmax / Tmax / half-life / AUC: male, Sprague-Dawley, rat, in vivo; for AUC: AUC0→ꝏ
Procedure: Rats were divided into two groups, i.e., tranderaml (test) group and oral (control) group, each of three. Rats were anesthetized by 10% chloral hydrate (dosing 0.3 mL/100 g) for intraperitoneal injection. After being anesthetized, hairs on the abdominal skin were removed by an electric shaver. Then, a glass ring with a diameter of 3 cm was fixed on the skin by a quick-drying glue. The applied dose of 20 mg/kg of the tested microemulsion formulation was placed inside the glass ring. […] Blood samples of approximately 0.6 mL were collected from the jugular vein and placed into a 1.5-mL Eppendorf at predetermined time intervals after transdermal administration. Then, the blood sample was centrifuged at 12,000 rpm for 10 min. The plasma samples were stored at −20 °C until analysis. Three to six replicates were conducted for each formulation.
Sample preparation [49, 53, 54]: A 100 μL of plasma samples was incubated with 100 μL of the sulfatase (approximately 200 unit) at 37 ± 0.5 °C for 5 h. Then, 100 µL Nicotine 4 µg/mL was used as internal standard added to the sample, then vortexed for 10 s. A total of 1 mL tert-methyl butyl ether was added for extract solution and vortexed for 10 min and then centrifuged at 10,000 rpm for 10 min. The supernatant of 800 µL was transferred to Eppendorf and evaporated to dryness in the vacuum oven (EYELA CVE-3000, Tokyo, Japan) for 1 h and 40 °C. The residue was reconstituted with 100 µL methanol and analyzed.
The pharmacokinetic analysis includes the following quantities: area under the curve (AUC), maximum plasma concentration (Cmax), the time needed to reach the maximum plasma concentration (Tmax), and the half-life (t1/2) of the drug. All values are presented as the mean ± standard deviation (SD). All data were processed using Phoenix WinNonlin 6.3 (Pharsight Corporation, Sunnyvale, CA, USA) to construct pharmacokinetic profiles. Data were analyzed by using the ANOVA test to evaluate the differences between the groups, and values of p < 0.05 indicated significant differences compared with control.

rats = test system: rats; parameters: method as in PMID 16198038, PMID 9748575, PMID 2548712; conditions: cited from earlier work
mice = test system: mice; parameters: method as in PMID 16198038, PMID 9748575, PMID 2548712; conditions: cited from earlier work

In the case of `O=c1c(-c2ccc(O)cc2)coc2cc(O)cc(O)c12` [genistein, 4′,5,7-trihydroxyisoflavone], the solubility in water [1] is given as 5.3 µM (≈ 1.43 µg/mL), the “Increase of solubility in co-surfactant vs distilled water” value ([2]; co-surfactant) is given as > 8415 fold and the solubility ([2]; in Distilled water, room temperature, read-out: Solubility) is given as ~0.01 mg/mL (≈ 0.037 mM). For the same compound, the solubility ([2]; microemulsion with PEG 400 concentration 0, read-out: Solubility in microemulsion) was 11.1 mg/mL (≈ 41 mM), the solubility ([2]; microemulsion with PEG 400 concentration 20%, read-out: Solubility in microemulsion) was 32 mg/mL (≈ 118 mM) and the “Increase of solubility in oil vs distilled water” value ([2]; oil) was “more than 13 fold”. The solubility ([2]; oil or lipid, thermodynamic from solid, in Capryol 90, room temperature, read-out: Solubility) was 5.2 ± 0.23 mg/mL (≈ 19.2 mM), the solubility ([2]; oil or lipid, thermodynamic from solid, in Oleic acid, room temperature, read-out: Solubility) was 0.13 ± 0.02 mg/mL (≈ 0.481 mM) and the solubility ([2]; oil or lipid, thermodynamic from solid, in Peceol, room temperature, read-out: Solubility) was 0.36 ± 0.01 mg/mL (≈ 1.33 mM). For the same compound, the solubility ([2]; organic solvent or mixture, thermodynamic from solid, in PEG 400, room temperature, read-out: Solubility) was 84.2 ± 5.61 mg/mL (≈ 311 mM), the solubility ([2]; organic solvent or mixture, thermodynamic from solid, in Transcutol HP, room temperature, read-out: Solubility) was 94.7 ± 3.92 mg/mL (≈ 350 mM) and the “Increase of solubility in surfactant vs distilled water” value ([2]; surfactant) was > 1903 fold. The solubility ([2]; thermodynamic from solid, in Brij 30, room temperature, read-out: Solubility) was 27.7 ± 1.8 mg/mL (≈ 103 mM), the solubility ([2]; thermodynamic from solid, in Cremophor EL, room temperature, read-out: Solubility) was 19.4 ± 6.15 mg/mL (≈ 71.9 mM) and the solubility ([2]; thermodynamic from solid, in Labrasol, room temperature, read-out: Solubility) was 55.5 ± 3.56 mg/mL (≈ 205 mM). For the same compound, the solubility ([2]; thermodynamic from solid, in Tween 80, room temperature, read-out: Solubility) was 19 ± 1.37 mg/mL (≈ 70.4 mM), the solubility ([2]; water, thermodynamic from solid, in Distilled water, room temperature, read-out: Solubility) was 0.01 mg/mL (≈ 0.037 mM) and the Mutagenicity (Salmonella typhimurium) was “not mutagenic”. It also gave a Cmax ([3]; po) of 3120 ± 1800 ng/mL, a Tmax ([3]; po) of 3.67 ± 0.43 h and a half-life ([3]; po) of 6.52 ± 1.24 h. For the same compound, the AUC ([3]; po, rats, aqueous suspension, n = 3) was 33900 ± 4760 ng·h/mL, the Cmax ([3]; topical or ocular) was 9120 ± 570 ng/mL and the Tmax ([3]; topical or ocular) was 7.26 ± 1.11 h. The half-life ([3]; topical or ocular) was 19.3 ± 5.05 h, the AUC ([3]; topical or ocular, rats, transdermal, microemulsion, n = 3) was 329000 ± 50000 ng·h/mL and the AUC0→ꝏ ([3]; rats, oral, aqueous suspension, n = 3) was 33910 ± 4760 ng·h/mL. The Mutagenicity and teratogenicity (rats) was “not mutagenic or teratogenic” and the Mutagenicity and teratogenicity (mice) was “not mutagenic or teratogenic”.
